Experimental data as given in publication PMC12038163 (Research, 2025).

Test: in vivo
Settings: male, Sprague-Dawley, rat, ip, 10 mg/kg

- AUC(0-inf): 9100 ng·h/mL
- AUC(0-t): 9070 ng·h/mL
- CL/F: 30 mL/min/kg
- Cmax: 5110 ng/mL
- half-life: 1.4 ± 0.3 h
Compound: Cc1cccc(-c2ccc(-c3cc4cnc(NC5CC5)nc4n(CCCCCC(=O)NO)c3=O)c(Cl)c2)n1 [ZMF-25]
